Results from US8883963B2 (Cadila Healthcare Limited, priority 2007, dated 2014).
Starred links: 1 amine or outer side, 2 acyl side, 3 side chain; linkers in the order of their positions; H or OH if unused. Non-standard residues stand in square brackets, D forms with d. Residues, ends and D or L forms follow the SMILES beside them. ξ: configuration not given here. *: point of attachment. X3 = CCc1cc(OC)ccc1-c1ccc(CC(N*)C(=S)NC(CCCc2ccccc2)C(N)=O)cc1; ξNMeBip(2'-Et,4'-OMe) = CCc1cc(OC)ccc1-c1ccc(CC(NC)C(=O)O)cc1; Leu(5,5,5,5',5',5'-F6) = N[C@@H](CC(C(F)(F)F)C(F)(F)F)C(=O)O; X4 = CCc1cc(OC)ccc1-c1ccc(CC(CNC(CCCc2ccccc2F)C(N)=O)N*)cc1; ξBip(2'-Et-4'-OMe) = CCc1cc(OC)ccc1-c1ccc(CC(N)C(=O)O)cc1; ξNva(5-(3,5-Me2-Ph)) = Cc1cc(C)cc(CCCC(N)C(=O)O)c1; ξNva(5-(4-Cl-2-MePh)) = Cc1cc(Cl)ccc1CCCC(N)C(=O)O; ξNMeNva(5-(2-F-Ph)) = CNC(CCCc1ccccc1F)C(=O)O; ξαMePhe(2-F) = CC(N)(Cc1ccccc1F)C(=O)O; X2 = O=C(C(CCCc1ccccc1Cl)N[*:1])[*:2]; NMeD = CN[C@@H](CC(=O)O)C(=O)O; aThr = C[C@H](O)[C@H](N)C(=O)O; Ac3c = NC1(C(=O)O)CC1; Aib = CC(C)(N)C(=O)O

What was measured:
Assay type in all cases: in vitro ADME
[1] = target: DPP IV (Homo sapiens, UniProt P27487); assay: Stability against DPP IV enzyme; conditions: 37° C.; for % degradation of peptidomimetics in 24 h when incubated with DPP-IV enzyme: 2 μM peptidomimetic; for half-life at 2 μM: DPP IV enzyme, pH 7.8, 2 μM peptidomimetic, read-out: half-life (t1/2) when incubated with DPP-IV enzyme
Experimental: (§1) Reactions were terminated by the addition of TFA/H2O (15 mL, 10% (v/v)). […] The column was equilibrated with TFA/H20, at a flow rate of 1 mL/min.

[2] = Stability in human plasma; conditions: 2 μM peptidomimetic, pooled human plasma, 37° C.; for half-life at 2 μM: pH 7.8, read-out: half-life (t1/2) when incubated with human plasma
Experimental: as §1

[3] = Stability in simulated gastric fluid; conditions: 2 μM peptidomimetic, simulated gastric fluid pH 1.5, 37° C.; for half-life at 2 μM: read-out: half-life (t1/2) when incubated with simulated gastric fluid
Experimental: as §1

[4] = Stability in simulated intestinal fluid; conditions: 2 μM peptidomimetic, simulated intestinal fluid pH 7.5, 37° C.; for half-life at 2 μM: read-out: half-life (t1/2) when incubated with simulated intestinal fluid
Experimental: as §1

[5] = Stability in liver microsomes; conditions: 2 μM peptidomimetic, human liver microsomes, 37° C.; for half-life at 2 μM: pH 7.8, read-out: half-life (t1/2) when incubated with liver microsomes
Experimental: as §1

DPP IV, sequence (P27487 whole entry, species assumed): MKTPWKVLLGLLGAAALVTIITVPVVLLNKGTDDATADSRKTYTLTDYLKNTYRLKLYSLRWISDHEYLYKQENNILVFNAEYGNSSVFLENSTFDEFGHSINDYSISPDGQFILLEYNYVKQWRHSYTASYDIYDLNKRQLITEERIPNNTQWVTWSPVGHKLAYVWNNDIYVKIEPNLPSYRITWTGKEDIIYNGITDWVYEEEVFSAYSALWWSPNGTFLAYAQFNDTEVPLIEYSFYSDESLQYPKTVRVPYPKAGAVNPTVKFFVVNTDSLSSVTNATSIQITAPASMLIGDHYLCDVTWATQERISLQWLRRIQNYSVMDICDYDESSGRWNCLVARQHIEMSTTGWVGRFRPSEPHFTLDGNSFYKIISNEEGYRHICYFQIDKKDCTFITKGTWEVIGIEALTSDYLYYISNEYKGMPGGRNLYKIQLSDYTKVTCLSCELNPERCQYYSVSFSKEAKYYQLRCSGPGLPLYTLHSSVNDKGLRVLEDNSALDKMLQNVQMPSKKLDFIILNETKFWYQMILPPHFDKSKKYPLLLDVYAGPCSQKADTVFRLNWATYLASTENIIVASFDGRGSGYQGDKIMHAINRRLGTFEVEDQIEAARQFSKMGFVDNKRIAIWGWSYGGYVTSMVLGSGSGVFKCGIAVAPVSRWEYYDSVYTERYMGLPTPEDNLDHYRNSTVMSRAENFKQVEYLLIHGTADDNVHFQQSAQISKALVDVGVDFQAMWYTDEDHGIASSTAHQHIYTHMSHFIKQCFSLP

SMILES | % degradation of peptidomimetics in 24 h when incubated with DPP-IV enzyme [1] [%] | half-life at 2 μM [1] [min] | % degradation of peptidomimetics in 24 h when incubated with human plasma [2] [%] | half-life at 2 μM [2] [min] | % degradation of peptidomimetics in 24 h when incubated with simulated gastric fluid [3] [%] | half-life at 2 μM [3] [min] | % degradation of peptidomimetics in 24 h when incubated with simulated intestinal fluid [4] [%] | half-life at 2 μM [4] [min] | half-life (t1/2) when incubated with liver microsomes [5] | % degradation of peptidomimetics in 24 h when incubated with liver microsomes [5] [%] | half-life (t1/2) when incubated with simulated gastric fluid [3] | half-life (t1/2) when incubated with simulated intestinal fluid [4] | half-life at 2 μM [5] [min] | half-life (t1/2) when incubated with human plasma [2]
CCc1cc(OC)ccc1-c1ccc(CC(NC(=O)[C@H](CC(=O)O)NC(=O)[C@H](CO)NC(=O)[C@@H](NC(=O)[C@H](Cc2ccccc2)NC(=O)[C@@H](NC(=O)CNC(=O)[C@H](CCC(N)=O)NC(=O)C2(NC(=O)[C@@H](N)Cc3c[nH]cn3)CC2)[C@@H](C)O)[C@@H](C)O)C(=O)NC(CCCc2ccccc2Cl)C(N)=O)cc1 (some centres unmarked) [compound 74] (H-H[Ac3c]QGTFTSD[ξBip(2'-Et-4'-OMe)][X2]-NH2) | 76 | – | 78 | – | 100 | 30 | 100 | 30 | – | 100 | – | – | 30 | (9) h
CCc1cc(OC)ccc1-c1ccc(CC(CNC(CCCc2ccccc2)C(N)=O)NC(=O)[C@H](CC(=O)O)NC(=O)[C@H](CO)NC(=O)[C@@H](NC(=O)C(C)(Cc2ccccc2F)NC(=O)[C@@H](NC(=O)CNC(=O)[C@H](CC(C(F)(F)F)C(F)(F)F)NC(=O)C(C)(C)NC(=O)[C@@H](N)Cc2c[nH]cn2)[C@H](C)O)[C@H](C)O)cc1 (some centres unmarked) [compound 215] | 00 | > 1440 | 00 | > 1440 | 00 | > 1440 | 00 | > 1440 | (5) h | 32 | – | – | – | –
CCc1cc(OC)ccc1-c1ccc(CC(NC(=O)[C@H](CC(=O)O)NC(=O)[C@H](CO)NC(=O)[C@@H](NC(=O)C(C)(Cc2ccccc2F)NC(=O)[C@@H](NC(=O)CNC(=O)[C@H](CC(C(F)(F)F)C(F)(F)F)NC(=O)C(C)(C)NC(=O)[C@@H](N)Cc2c[nH]cn2)[C@H](C)O)[C@H](C)O)C(=S)NC(CCCc2ccccc2)C(N)=O)cc1 (some centres unmarked) [compound 219] (H-H[Aib][Leu(5,5,5,5',5',5'-F6)]G[aThr][ξαMePhe(2-F)][aThr]SD-X3) | 00 | > 1440 | 00 | > 1440 | 00 | > 1440 | 00 | > 1440 | (5) h | 33 | – | – | – | –
CCc1cc(OC)ccc1-c1ccc(CC(C(=O)N(C)C(CCCc2ccccc2F)C(N)=O)N(C)C(=O)[C@H](CC(=O)O)N(C)C(=O)[C@H](CO)NC(=O)[C@@H](NC(=O)C(C)(Cc2ccccc2F)NC(=O)[C@@H](NC(=O)CNC(=O)[C@H](CC(C(F)(F)F)C(F)(F)F)NC(=O)C(C)(C)NC(=O)[C@@H](N)Cc2c[nH]cn2)[C@H](C)O)[C@H](C)O)cc1 (some centres unmarked) [compound 221] (H-H[Aib][Leu(5,5,5,5',5',5'-F6)]G[aThr][ξαMePhe(2-F)][aThr]S[NMeD][ξNMeBip(2'-Et,4'-OMe)][ξNMeNva(5-(2-F-Ph))]-NH2) | 00 | > 1440 | 00 | > 1440 | 00 | > 1440 | 00 | > 1440 | (5) h | 32 | – | – | – | –
CCc1cc(OC)ccc1-c1ccc(CC(NC(=O)[C@H](CC(=O)O)NC(=O)[C@H](CO)NC(=O)[C@@H](NC(=O)C(C)(Cc2ccccc2F)NC(=O)[C@@H](NC(=O)CNC(=O)[C@H](CC(C(F)(F)F)C(F)(F)F)NC(=O)C(C)(C)NC(=O)[C@@H](N)Cc2c[nH]cn2)[C@H](C)O)[C@@H](C)O)C(=O)NC(CCCc2ccccc2)C(N)=O)cc1 (some centres unmarked) [compound 226] | 74 | – | 75 | – | 100 | 30 | 100 | 30 | – | 100 | – | – | 30 | (9) h
CCc1cc(OC)ccc1-c1ccc(CC(NC(=O)[C@H](CC(=O)O)NC(=O)[C@H](CO)NC(=O)[C@@H](NC(=O)C(C)(Cc2ccccc2F)NC(=O)[C@@H](NC(=O)CNC(=O)[C@H](CC(C(F)(F)F)C(F)(F)F)NC(=O)C(C)(C)NC(=O)[C@@H](N)Cc2c[nH]cn2)[C@H](C)O)[C@H](C)O)C(=O)NC(CCCc2ccccc2F)C(N)=O)cc1 (some centres unmarked) [compound 229] | 70 | – | 71 | – | 100 | 30 | 100 | 30 | – | 100 | – | – | 30 | (9) h
CCc1cc(OC)ccc1-c1ccc(CC(NC(=O)[C@H](CC(=O)O)NC(=O)[C@H](CO)NC(=O)[C@@H](NC(=O)C(C)(Cc2ccccc2F)NC(=O)[C@@H](NC(=O)CNC(=O)[C@H](CC(C(F)(F)F)C(F)(F)F)NC(=O)C(C)(C)NC(=O)[C@@H](N)Cc2c[nH]cn2)[C@@H](C)O)[C@@H](C)O)C(=O)NC(CCCc2ccccc2)C(N)=O)cc1 (some centres unmarked) [compound 234] | 72 | – | 70 | – | 100 | 30 | 100 | 30 | – | 100 | – | – | 30 | (9) h

The next lines start with the values.

% degradation of peptidomimetics in 24 h when incubated with DPP-IV enzyme [1] [%] | half-life at 2 μM [1] [min] | % degradation of peptidomimetics in 24 h when incubated with human plasma [2] [%] | half-life at 2 μM [2] [min] | % degradation of peptidomimetics in 24 h when incubated with simulated gastric fluid [3] [%] | half-life at 2 μM [3] [min] | % degradation of peptidomimetics in 24 h when incubated with simulated intestinal fluid [4] [%] | half-life at 2 μM [4] [min] | half-life (t1/2) when incubated with liver microsomes [5] | % degradation of peptidomimetics in 24 h when incubated with liver microsomes [5] [%] | half-life (t1/2) when incubated with simulated gastric fluid [3] | half-life (t1/2) when incubated with simulated intestinal fluid [4] | half-life at 2 μM [5] [min] | half-life (t1/2) when incubated with human plasma [2] | SMILES
00 | > 1440 | 00 | > 1440 | 00 | > 1440 | 00 | > 1440 | (5) h | 35 | – | – | – | – | CCc1cc(OC)ccc1-c1ccc(CC(NC(=O)[C@H](CC(=O)O)NC(=O)[C@H](CO)NC(=O)[C@@H](NC(=O)[C@H](Cc2ccccc2)NC(=O)[C@@H](NC(=O)CNC(=O)[C@H](CCC(N)=O)NC(=O)[C@H](CO)NC(=O)[C@@H](N)Cc2c[nH]cn2)[C@@H](C)O)[C@@H](C)O)C(=O)NC(CCCc2ccc(Cl)cc2C)C(N)=O)cc1 (some centres unmarked) [compound 8] (H-HSQGTFTSD[ξBip(2'-Et-4'-OMe)][ξNva(5-(4-Cl-2-MePh))]-NH2)
74 | 540 | 75 | 480 | 12 | – | 46 | – | – | 83 | (8) h | (6) h | 60 | – | CCc1cc(OC)ccc1-c1ccc(CC(NC(=O)[C@H](CC(=O)O)NC(=O)[C@H](CO)NC(=O)[C@@H](NC(=O)[C@H](Cc2ccccc2)NC(=O)[C@@H](NC(=O)CNC(=O)[C@H](CCC(N)=O)NC(=O)[C@H](C)NC(=O)[C@@H](N)Cc2c[nH]cn2)[C@@H](C)O)[C@@H](C)O)C(=O)NC(CCCc2cc(C)cc(C)c2)C(N)=O)cc1 (some centres unmarked) [compound 14] (H-HAQGTFTSD[ξBip(2'-Et-4'-OMe)][ξNva(5-(3,5-Me2-Ph))]-NH2)
76 | – | 78 | – | 100 | 30 | 100 | 30 | – | 100 | – | – | 30 | (9) h | CCc1cc(OC)ccc1-c1ccc(CC(CNC(CCCc2ccccc2F)C(N)=O)NC(=O)[C@H](CC(=O)O)NC(=O)[C@H](CO)NC(=O)[C@@H](NC(=O)C(C)(Cc2ccccc2F)NC(=O)[C@@H](NC(=O)CNC(=O)[C@H](CC(C(F)(F)F)C(F)(F)F)NC(=O)C(C)(C)NC(=O)[C@@H](N)Cc2c[nH]cn2)[C@H](C)O)[C@H](C)O)cc1 (some centres unmarked) [compound 214] (H-H[Aib][Leu(5,5,5,5',5',5'-F6)]G[aThr][ξαMePhe(2-F)][aThr]SD-X4)
